Assays:
[1] = system: ventricular strips; test: Cardiac stimulant activity in vitro, force of contraction of guinea pig ventricular strips; type: cell-based, Guinea pigs; settings: Cavia porcellus, read-out: EC50 (50% increase in the force of contraction of the ventricular strips); concentration in bathing fluid
Method: The compounds of formula (I) and their pharmaceutically acceptable salts are tested for cardiac stimulant activity following a procedure based on that of S. C. Verma and J. H. McNeill (J. Pharm. & Exp. Therapeutics, 200, 352-362 (1977)). Guinea pigs (500-700 g) of either sex are sacrificed and the hearts are quickly removed and transferred to a dissecting dish containing oxygenated bathing fluid. While in the bathing medium, the right ventricle is cut into two strips. The strips are each suspended in a 50 ml bath containing Krebs Henseleit solution at 37° C., and the bath is bubbled with 95% oxygen and 5% carbon dioxide. The ventricular strips are electrically stimulated at a frequency of 1.0 Hz, at double the threshold voltage. A resting tension of 1.0 g is applied to the strips and the tension is kept constant by readjustment during an equilibration period of 60 minutes. The bathing fluid is frequently changed during this period. When a steady base line is obtained, a compound under test is added to the bathing fluid and a cumulative concentration response curve is plotted.

[2] = target: PDE (Peak III); test: Inhibition of phosphodiesterase PDE (Peak III) from cat heart; settings: 1 μM cyclic AMP
Method: The enzyme was assayed by incubation at 37° for 4-30 min in 50 mM Tris, 5 mM MgCl2, pH 7.5 with [3-H]cyclic nucleotide (4×10^5 disintegrations min^-1) and [14-C] nucleotide 5' monophosphate (3×10^3 disintegrations min^-1). […] The reaction mixture was diluted with 0.5 ml 100 mM HEPES (N-2-Hydroxyethylpiperazine-N'-2-ethanesulfonic acid), 100 mM NaCl, pH 8.5, and applied to the column. […] The recovery of product as judged by [14-C] recovery was approximately 80%. All assays were linear with time of incubation and concentration of enzyme over the range used in these experiments.

[3] = system: left ventricular contractility (left ventricular dp/dt max); test: Cardiac stimulant activity in vivo, left ventricular dp/dt max in anaesthetised cats; settings: Felis catus, iv, read-out: ED50 (dose to increase left ventricular dp/dt max by 50%), i.v., pretreated with pempidine and propranolol
[4] = system: hindquarters perfusion pressure; test: Vasodilator activity in autoperfused anaesthetised cat hind quarters; type: in vivo; settings: Felis catus, iv, constant blood flow, i.v., read-out: ED15 (i.v. dose to decrease hindquarters perfusion pressure by 15%)
Method: The compounds of the Examples were tested in autoperfused anaesthetised cat hind quarters (autoperfused at constant blood flow). The i.v. dose to decrease hindquarters perfusion pressure (vasodilatation) by 15% is given as the ED15.

[5] = system: histamine-induced bronchoconstriction; test: Bronchodilatation in vivo, histamine-induced bronchoconstriction in anaesthetised guinea-pigs; design: species or system Dunkin Hartley strain; settings: n=1
Method: Male guinea-pigs of the Dunkin Hartley strain (500-600 g) were anaesthetised with Sagatal (pentobarbital sodium) (60 mg/kg i.p.). Airway resistance was measured using a modification of the classical Konzett-Rossler technique (Versuchsanordnung zu Untersuchungen an der Bronchialmuskulatur. Naunyn-Schmiedebergs Arch. Exp. Path. Pharmak., 195: pp 71-74, (1940)). A dose of histamine which gave approximately 150% increase in airway resistance was selected for i.v. administration. Bolus doses of the compound of Example 6 were administered (i.v.) on minute before the histamine challenge (n=1).

Compound | EC50 [1] [nM] | IC50 [2] [nM] | ED50 [3] [µmol/kg] | ED15 [4] [µmol/kg] | ED50 ([5]; Cavia porcellus, iv, read-out: ED50 (dose which would reduce the histamine bronchoconstriction by 50%), i.v. one minute before histamine challenge, calculated by interpolation) [µmol/kg] | effect on histamine-induced bronchoconstriction ([5]; i.v., in words)
O=C1CCC(c2ccc(C3=NNC(=O)CC3)cc2)=NN1 [Example 2, 1,4-Bis(6-oxo-1,4,5,6-tetrahydropyridazin-3-yl)benzene] | – | 640 | 0.55 | 0.12 | – | –
CC1CC(=O)NN=C1c1ccc(C2=NNC(=O)CC2C)cc1 (stereo not drawn) [Example 3, 1,4-Bis(4-methyl-6-oxo-1,4,5,6-tetrahydropyridazin-3-yl)benzene] | – | 110 | 0.06 | 0.04 | – | –
O=c1ccc(-c2cccc(-c3ccc(=O)[nH]n3)c2)n[nH]1 [Example 5, 1,3-Bis(6-oxo-1,6-dihydropyridazin-3-yl)benzene] | – | 3900 | 3.16 | 3.23 | – | –

The next lines start with results.

EC50 [1] [nM] | IC50 [2] [nM] | Compound | ED50 [3] [µmol/kg] | ED15 [4] [µmol/kg] | ED50 ([5]; Cavia porcellus, iv, read-out: ED50 (dose which would reduce the histamine bronchoconstriction by 50%), i.v. one minute before histamine challenge, calculated by interpolation) [µmol/kg] | effect on histamine-induced bronchoconstriction ([5]; i.v., in words)
900 | 330 | O=c1ccc(-c2ccc(-c3ccc(=O)[nH]n3)cc2)n[nH]1 [Example 1, 1,4-Bis(6-oxo-1,6-dihydropyridazin-3-yl)benzene] | 0.04 | – | – | –
– | 37500 | Cc1cc(=O)[nH]nc1-c1ccc(-c2n[nH]c(=O)cc2C)cc1 [Example 4, 1,4-Bis(4-methyl-6-oxo-1,6-dihydropyridazin-3-yl)benzene] | – | – | – | –
– | 70 | CC1CC(=O)NN=C1c1ccc(-c2ccc(=O)[nH]n2)cc1 (stereo not drawn) [Example 6, 6-[4-(4-Methyl-6-oxo-1,4,5,6-tetrahydropyridazin-3-yl)phenyl]pyridazin-3(2H)-one] | 0.02 | 0.01 | 0.033 | reduced the histamine-induced bronchoconstriction

Source: patent US4904664A, “Benzene compounds having two pyridazinone substituents” (Smith Kline & French Laboratories Limited, priority 1985, dated 1990)
